Reference: patent EP1027887B1, “Matrix controlled release device” (Pfizer Products Inc., priority 1999, dated 2000)
Values after ≈ are worked out from the molar mass of the structure shown.

Legend:
Type in all cases: physicochemical
[1] = In vitro dissolution test in 35 mL PBS solution (Example 1); details: 35 mL PBS pH 6.5, 37°C
Description: (§1) Phosphate buffered saline solution (PBS) was prepared comprising 20 mM sodium phosphate, […] potassium phosphate, 87 mM NaCl and 0.2 mM KCl, adjusted to pH 6.5. Four in vitro dissolution tests were performed in 35 mL of the PBS solution at 37°C to test the effectiveness of drug release from the dosage composition of the invention as measured against Controls A, B and C. Drug concentrations over time were determined by periodically withdrawing samples of each of the four solutions, centrifuging the samples for 1 minute at 13,000 rpm to pellet any undissolved drug, sampling the supernate, and analyzing the sample by High Performance Liquid Chromatography (HPLC) to thereby calculate drug concentrations.

[2] = In vitro dissolution test in 500 mL Model Fasted Duodenum (MFD) solution (Example 2); details: 500 mL MFD solution
Description: as §1
(§2) A Model Fasted Duodenum (MFD) solution which mimics the chemical environment in the small intestine was prepared, comprising the PBS solution described in Example 1 mixed with 14.7 mM sodium taurocholic acid and 2.8 mM of 1-palmitoyl-2-oleyl-sn-glycero-3-phosphocholine. Four in vitro dissolution tests were performed in 500 mL of the so-prepared MFD solution to test the effectiveness of drug release from the dosage composition of the invention against Controls D, E and F. The sampling and analysis were carried out as in Example 1.

[3] = In vitro dissolution test in 30 ml MFD solution (Reference Example 5)
Description: as §1, §2
An MFD solution was prepared as in Example 2. Four in vitro dissolution tests were performed in 30 ml of the MFD solution to test the effectiveness of drug release from the dosage composition of the invention against Controls J, K and L. The sampling and analysis were carried out as in Example 1.

[4] = Water solubility of the drug
[5] = In vitro dissolution test in 40 mL PBS solution (Reference Example 3); details: 37°C
Description: as §1
As a control (Control G), tablets were similarly prepared except rather than using the drug/CAP solid dispersion, a mixture of 1 part crystalline drug to 3 parts CAP was used. As a second control (Control H), 26 mg of crystalline drug alone was used. As a third control (Control I), 105.3 mg of the solid dispersion with no erodible matrix was used. In order to determine the drug release profile of the dosage form of the present invention as compared to the controls, in vitro dissolution tests in 40 mL of the PBS solution of Example 1 at 37°C were performed as in Example 1.

For O=C(N[C@@H](Cc1ccccc1)[C@@H](O)C(=O)N1C[C@@H](O)[C@@H](O)C1)c1cc2cc(Cl)ccc2[nH]1 [Control B, 5-chloro-1H-indole-2-carboxylic acid [(1S) -benzyl-3-((3R,4S) -dihydroxypyrrolidin-1-yl-) - (2R) -hydroxy-3-oxypropyl]amide], the AUC ([1]; time 0 min) was 0 µg·min/mL, the “[Drug]” value ([1]; time 0 min) was 0.0 µg/mL and the AUC ([1]; time 4 min) was 180 µg·min/mL. The “[Drug]” value ([1]; time 4 min) was 90.1 µg/mL, the AUC ([1]; time 10 min) was 754 µg·min/mL and the “[Drug]” value ([1]; time 10 min) was 101.0 µg/mL. The AUC ([1]; time 20 min) was 1753 µg·min/mL, the “[Drug]” value ([1]; time 20 min) was 98.8 µg/mL and the AUC ([1]; time 40 min) was 4402 µg·min/mL. The “[Drug]” value ([1]; time 40 min) was 166.1 µg/mL, the AUC ([1]; time 90 min) was 12252 µg·min/mL and the “[Drug]” value ([1]; time 90 min) was 147.9 µg/mL. For the same compound, the AUC ([1]; time 120 min) was 16937 µg·min/mL, the “[Drug]” value ([1]; time 120 min) was 164.5 µg/mL and the AUC ([1]; time 180 min) was 25991 µg·min/mL. The “[Drug]” value ([1]; time 180 min) was 137.3 µg/mL, the AUC ([1]; time 240 min) was 34362 µg·min/mL and the “[Drug]” value ([1]; time 240 min) was 141.8 µg/mL. For the same compound, the AUC ([1]; time 360 min) was 52528 µg·min/mL, the “[Drug]” value ([1]; time 360 min) was 161.0 µg/mL and the AUC ([1]; time 525 min) was 80574 µg·min/mL. The “[Drug]” value ([1]; time 525 min) was 179.0 µg/mL, the AUC ([1]; time 720 min) was 113346 µg·min/mL and the “[Drug]” value ([1]; time 720 min) was 157.2 µg/mL.
For CON(C)C(=O)C(O)[C@H](Cc1ccccc1)NC(=O)c1cc2cc(Cl)ccc2[nH]1 (stereo in doubt) [Control E, [R-(R*S*)]-5 chloro-N-[2-hydroxy-3-[(methoxymethylamino)-3-oxo-1(phenylmethyl)propyl]propyl]-1H-indole-2-carboxymide], the AUC ([2]; time 0 min) was 0 µg·min/mL, the “[Drug]” value ([2]; time 0 min) was 0.0 µg/mL and the AUC ([2]; time 10 min) was 21 µg·min/mL. The “[Drug]” value ([2]; time 10 min) was 6.9 µg/mL, the AUC ([2]; time 20 min) was 72 µg·min/mL and the “[Drug]” value ([2]; time 20 min) was 3.2 µg/mL. The AUC ([2]; time 40 min) was 172 µg·min/mL, the “[Drug]” value ([2]; time 40 min) was 6.8 µg/mL and the AUC ([2]; time 90 min) was 795 µg·min/mL. The “[Drug]” value ([2]; time 90 min) was 18.1 µg/mL, the AUC ([2]; time 120 min) was 1281 µg·min/mL and the “[Drug]” value ([2]; time 120 min) was 14.3 µg/mL. The AUC ([2]; time 180 min) was 2219 µg·min/mL, the “[Drug]” value ([2]; time 180 min) was 17.0 µg/mL and the AUC ([2]; time 240 min) was 2992 µg·min/mL. For the same compound, the “[Drug]” value ([2]; time 240 min) was 8.8 µg/mL, the AUC ([2]; time 360 min) was 4030 µg·min/mL and the “[Drug]” value ([2]; time 360 min) was 8.5 µg/mL. For the same compound, the AUC ([2]; time 525 min) was 5756 µg·min/mL, the “[Drug]” value ([2]; time 525 min) was 10.7 µg/mL and the AUC ([2]; time 720 min) was 7525 µg·min/mL. For the same compound, the “[Drug]” value ([2]; time 720 min) was 9.0 µg/mL and the “[Drug]” value ([2]; time 1200 min) was 8.0 µg/mL.
With CN[C@H]1CC[C@@H](c2ccc(Cl)c(Cl)c2)c2ccccc21.Cl (relative stereo) [Control K, (1S-cis)-4-(3,4-dichlorophenyl)-1,2,3,4-tetrahydro-N-methyl-1-napthalenamine hydrochloride] the AUC ([3]; time 0 min) was 0 µg·min/mL, the “[Drug]” value ([3]; time 0 min) was 0 µg/mL and the AUC ([3]; time 10 min) was 1073 µg·min/mL. The “[Drug]” value ([3]; time 10 min) was 0 µg/mL, the AUC ([3]; time 20 min) was 5459 µg·min/mL and the “[Drug]” value ([3]; time 20 min) was 358 µg/mL. For the same compound, the AUC ([3]; time 40 min) was 16706 µg·min/mL, the “[Drug]” value ([3]; time 40 min) was 520 µg/mL and the AUC ([3]; time 90 min) was 37083 µg·min/mL. For the same compound, the “[Drug]” value ([3]; time 90 min) was 605 µg/mL, the AUC ([3]; time 120 min) was 40231 µg·min/mL and the “[Drug]” value ([3]; time 120 min) was 210 µg/mL. The AUC ([3]; time 240 min) was 52796 µg·min/mL, the “[Drug]” value ([3]; time 240 min) was 130 µg/mL and the AUC ([3]; time 360 min) was 70528 µg·min/mL. The “[Drug]” value ([3]; time 360 min) was 159 µg/mL, the AUC ([3]; time 540 min) was 108647 µg·min/mL and the “[Drug]” value ([3]; time 540 min) was 136 µg/mL. For the same compound, the “[Drug]” value ([3]; time 1200 min) was 128 µg/mL.
For CN[C@H]1CC[C@@H](c2ccc(Cl)c(Cl)c2)c2ccccc21.Cl (relative stereo) [(1S-cis)-4-(3,4-dichlorophenyl)-1,2,3,4-tetrahydro-N-methyl-1-napthalenamine hydrochloride], the water solubility [4] was 70 µg/mL.
With O=C(N[C@@H](Cc1ccccc1)[C@@H](O)C(=O)N1C[C@@H](O)[C@@H](O)C1)c1cc2cc(Cl)ccc2[nH]1 [Control H, 5-chloro-1H-indole-2-carboxylic acid [(1S) -benzyl-3-((3R,4S) -dihydroxypyrrolidin-1-yl-) - (2R) -hydroxy-3-oxypropyl]amide] the AUC ([5]; time 0 min) was 0 µg·min/mL, the “[Drug]” value ([5]; time 0 min) was 0.0 µg/mL and the AUC ([5]; time 10 min) was 0 µg·min/mL. The “[Drug]” value ([5]; time 10 min) was 107.8 µg/mL, the AUC ([5]; time 20 min) was 323 µg·min/mL and the “[Drug]” value ([5]; time 20 min) was 130.1 µg/mL. The AUC ([5]; time 40 min) was 1513 µg·min/mL, the “[Drug]” value ([5]; time 40 min) was 109.1 µg/mL and the AUC ([5]; time 90 min) was 3906 µg·min/mL. The “[Drug]” value ([5]; time 90 min) was 118.1 µg/mL, the AUC ([5]; time 120 min) was 9587 µg·min/mL and the “[Drug]” value ([5]; time 120 min) was 121.8 µg/mL. The AUC ([5]; time 180 min) was 13186 µg·min/mL, the “[Drug]” value ([5]; time 180 min) was 151.7 µg/mL and the AUC ([5]; time 240 min) was 21392 µg·min/mL. For the same compound, the “[Drug]” value ([5]; time 240 min) was 170.4 µg/mL, the AUC ([5]; time 360 min) was 31055 µg·min/mL and the “[Drug]” value ([5]; time 360 min) was 135.3 µg/mL. The AUC ([5]; time 540 min) was 49395 µg·min/mL, the “[Drug]” value ([5]; time 540 min) was 134.8 µg/mL and the AUC ([5]; time 720 min) was 73701 µg·min/mL. For the same compound, the “[Drug]” value ([5]; time 720 min) was 168.3 µg/mL.
For CON(C)C(=O)[C@H](O)[C@H](Cc1ccccc1)NC(=O)c1cc2cc(Cl)ccc2[nH]1 [[R-(R*S*)]-5 chloro-N-[2-hydroxy-3-[(methoxymethylamino)-3-oxo-1(phenylmethyl)propyl]propyl]-1H-indole-2-carboxymide], the solubility [4] was 1 µg/mL (≈ 2.4 µM).
